Test results: patent US10246417B2, “Picolinamides as fungicides” (Dow AgroSciences LLC, priority 2017, dated 2019)

These compounds were tested on Phakopsora pachyrhizi (assay: Fungicidal activity: Asian soybean rust (PHAKPA), soybean seedlings). Conditions: High volume, 25 ppm, 3 Day Curative.
Assay type: in vivo
Protocol: Example C: Evaluation of Fungicidal Activity: Asian Soybean Rust (Phakopsora pachyrhizi; Bayer Code […]) Technical grades of materials were dissolved in acetone, which were then mixed with nine volumes of water containing 0.011% Tween 20. The fungicide solutions were applied onto soybean seedlings using an automated booth sprayer to run-off. All sprayed plants were allowed to air dry prior to further handling. Soybean plants (variety Williams 82) were grown in soil-less Metro mix, with one plant per pot. Two week old seedlings were used for testing. Plants were inoculated either 3 days prior to or 1 day after fungicide treatments. Plants were incubated for 24 h in a dark dew room at 22° C. and 100% relative humidity then transferred to a growth room at 23° C. for disease to develop. Disease severity was assessed on the sprayed leaves.

| Structure (SMILES) | PHAKPA disease control, 3DC |
| --- | --- |
| COc1ccnc(C(=O)N[C@@H](C)C(=O)O[C@@H](C)[C@@H](c2ccc(F)cc2C)C(C)C)c1OC(C)=O [compound 178] | B (≤80) |
| COc1ccnc(C(=O)N[C@@H](C)C(=O)O[C@H](C)[C@H](c2ccc(F)cc2C)C(C)C)c1OC(C)=O [compound 192] | B (≤80) |
| COc1ccnc(C(=O)N[C@@H](C)C(=O)O[C@@H](C)[C@H](c2ccc(C)cc2F)C(C)C)c1OC(C)=O [compound 366] | B (≤80) |
| COc1ccnc(C(=O)N[C@@H](C)C(=O)O[C@@H](C)[C@@H](c2ccc(C)cc2F)C(C)C)c1OC(C)=O [compound 369] | B (≤80) |
